Experimental data: US20220187282A1, “CARDIOMYOCYTE PROLIFERATION” (The Council of the Queensland Institute of Medical Research, priority 2019, published 2022)
Like-named read-outs stand apart in the source and are kept apart here.

Columns and labels:
immature hCOs [1] = assay: immature hCO screen, force of contraction; assay type: cell-based, human; details: 2 days
Protocol: The pole deflection was used to approximate the force of contraction as per (Mills et al., 2017a). A Leica DMi8 inverted high content Imager was used to capture a 10 s time-lapse of each hCO contracting in real time at 37° C. Custom batch processing files were written in Matlab R2013a (Mathworks) to convert the stacked TIFF files to AVI, track the pole movement (using vision.PointTracker), determine the contractile parameters, produce a force-time figure, and export the batch data to an Excel (Microsoft) spreadsheet.
(§1) The compound library included 5,000 biologically annotated pre-clinical, clinical, and tool compounds. They were selected based on a combination of criteria including balancing the number of external/internal compounds, diversity of annotated targets to cover greater than 1500 biological targets, and known targets associated with cell proliferation. […] Both negative vehicle (DMSO) and positive (CHIR99021) controls were included on each plate in each experiment (FIG. 2B,C).

kinases [2] = molecular target: kinases (Homo sapiens, UniProt Q9BXA7); assay type: biochemical; details: STK22D (TSSK1) FRET-Z-Lyte SP; Test Conc(μM):ATP Conc(μM) 1:10
kinases [3] = molecular target: kinases (Homo sapiens, UniProt Q13627); assay type: biochemical; details: DYRK1A FRET-Z-Lyte SP; Test Conc(μM):ATP Conc(μM) 1:100
kinases [4] = molecular target: kinases (Homo sapiens, UniProt Q9H1R3); assay type: biochemical; details: MYLK2 FRET-Z-lyte SP
kinases [5] = molecular target: kinases (Homo sapiens, UniProt P48736); assay type: biochemical; details: PIK3CG (p110 gamma) Adapta SP; Test Conc(μM):ATP Conc(μM) 1:25
kinases [6] = molecular target: kinases (Homo sapiens, UniProt Q13882); assay type: biochemical; details: PTK6 (Brk) *Mn* FRET-Z-Lyte SP; Test Conc(μM):ATP Conc(μM) 1:75
kinases [7] = molecular target: kinases (Homo sapiens, UniProt Q14680); assay type: biochemical; details: MELK FRET-Z-Lyte SP; Test Conc(μM):ATP Conc(μM) 1:25
kinases [8] = molecular target: kinases (Homo sapiens, UniProt P51817); assay type: biochemical; details: PRKX FRET-Z-Lyte SP; Test Conc(μM):ATP Conc(μM) 1:10
kinases [9] = molecular target: kinases (Homo sapiens, UniProt Q9UBE8); assay type: biochemical; details: NLK FRET-Lantha SP; Test Conc(μM) 1
kinases [10] = molecular target: kinases (Homo sapiens, UniProt P43405); assay type: biochemical; details: SYK FRET-Z-Lyte SP; Test Conc(μM):ATP Conc(μM) 1:25
kinases [11] = molecular target: kinases (Homo sapiens, UniProt Q16512); assay type: biochemical; details: PKN1 (PRK1) FRET-Z-Lyte SP; Test Conc(μM):ATP Conc(μM) 1:50
kinases [12] = molecular target: kinases (Homo sapiens, UniProt P37173); assay type: biochemical; details: TGFBR2 FRET-Lantha SP; Test Conc(μM) 1
immature hCOs [13] = assay: immature hCO screen, Ki-67 intensity (proliferation); assay type: cell-based, human; details: for proliferation in immature hCO (Ki-67 intensity): 0.1, 1 and 10 μM, 2 days; for hCO Screen Max Effect (%): maximum over 0.1, 1, 10 uM
Protocol: Heart-dyno culture inserts were fabricated using standard SU-8 photolithography and PDMS molding practices (Mills et al., 2017a). CTRL medium: α-MEM GlutaMAX (ThermoFisher Scientific), 10% fetal bovine serum (FBS) (ThermoFisher Scientific), 200 μM L-ascorbic acid 2-phosphate sesquimagnesium salt hydrate (Sigma) and 1% Penicillin/Streptomycin (ThermoFisher Scientific). For each hCO, 5×10^4 cardiac cells in CTRL medium were mixed with collagen I to make a 3.5 μL final solution containing 2.6 mg/mL collagen I and 9% Matrigel. The bovine acid-solubilized collagen I (Devro) was first salt balanced and pH neutralized using 10×DMEM and 0.1 M NaOH, respectively, prior to mixing with Matrigel and cells. The mixture was prepared on ice and pipetted into the Heart-Dyno. The Heart-Dyno was then centrifuged at 100×g for 10 s to ensure the hCO form halfway up the posts. The mixture was then gelled at 37° C. for 60 min prior to the addition of CTRL medium to cover the tissues (150 μL/hCO). The Heart-Dyno design facilitates the self-formation of tissues around in-built PDMS exercise poles (designed to deform ˜0.07 μm/μN). The medium was changed every 2-3 days (150 μL/hCO).
hCOs were cultured in CTRL medium for formation for 5 days and then either kept in CTRL medium culture or changed to maturation medium (Mills et al., 2017a) comprising DMEM without glucose, glutamine and phenol red (ThermoFisher Scientific) supplemented with 4% […](without insulin) (ThermoFisher Scientific), 1% GlutaMAX (ThermoFisher Scientific), 200 μM L-ascorbic acid 2-phosphate sesquimagnesium salt hydrate and 1% Penicillin/Streptomycin (ThermoFisher Scientific), 1 mmol/L glucose and 100 μmon palmitic acid (conjugated to bovine serum albumin within B27 by incubating for 2h at 37° C., Sigma) with changes every 2-3 days.
Whole-Mount Immunostaining hCOs were fixed for 60 min with 1% paraformaldehyde (Sigma) at room temperature and washed 3× with PBS, after which they were incubated with primary antibodies (see Star Methods Table) in Blocking Buffer, 5% FBS and 0.2% Triton-X-100 (Sigma) in PBS overnight at 4° C. Cells were then washed in Blocking Buffer 2× for 2 h and subsequently incubated with secondary antibodies (see Star Methods Table) and Hoechst33342 (1:1000) overnight at 4° C. They were washed in Blocking Buffer 2× for 2 h and imaged in situ or mounted on microscope slides using Fluoromount-G (Southern Biotech).
For screening hCOs were imaged using a Leica DMi8 high content imaging microscope for in situ imaging. Custom batch processing files were written in Matlab R2013a (Mathworks) to remove the background, calculate the image intensity, and export the batch data to an Excel (Microsoft) spreadsheet.
as §1

[14] = pharmacokinetic properties in vivo

Chain of kinases (Homo sapiens, UniProt P37173) (P37173 23-567): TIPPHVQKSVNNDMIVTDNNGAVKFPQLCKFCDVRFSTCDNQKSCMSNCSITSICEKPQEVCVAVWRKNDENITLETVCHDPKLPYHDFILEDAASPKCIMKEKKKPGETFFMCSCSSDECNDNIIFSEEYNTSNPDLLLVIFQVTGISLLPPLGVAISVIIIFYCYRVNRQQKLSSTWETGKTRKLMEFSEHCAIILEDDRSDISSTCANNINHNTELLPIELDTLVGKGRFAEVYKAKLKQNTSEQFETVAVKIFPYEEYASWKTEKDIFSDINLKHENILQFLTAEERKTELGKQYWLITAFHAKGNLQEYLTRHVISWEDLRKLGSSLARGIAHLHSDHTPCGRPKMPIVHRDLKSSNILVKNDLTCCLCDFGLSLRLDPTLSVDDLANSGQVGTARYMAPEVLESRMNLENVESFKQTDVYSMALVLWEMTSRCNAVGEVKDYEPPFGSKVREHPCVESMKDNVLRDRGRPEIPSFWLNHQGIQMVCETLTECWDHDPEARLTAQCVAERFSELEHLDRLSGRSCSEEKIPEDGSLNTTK
Chain of kinases (Homo sapiens, UniProt Q14680) (Q14680 whole entry): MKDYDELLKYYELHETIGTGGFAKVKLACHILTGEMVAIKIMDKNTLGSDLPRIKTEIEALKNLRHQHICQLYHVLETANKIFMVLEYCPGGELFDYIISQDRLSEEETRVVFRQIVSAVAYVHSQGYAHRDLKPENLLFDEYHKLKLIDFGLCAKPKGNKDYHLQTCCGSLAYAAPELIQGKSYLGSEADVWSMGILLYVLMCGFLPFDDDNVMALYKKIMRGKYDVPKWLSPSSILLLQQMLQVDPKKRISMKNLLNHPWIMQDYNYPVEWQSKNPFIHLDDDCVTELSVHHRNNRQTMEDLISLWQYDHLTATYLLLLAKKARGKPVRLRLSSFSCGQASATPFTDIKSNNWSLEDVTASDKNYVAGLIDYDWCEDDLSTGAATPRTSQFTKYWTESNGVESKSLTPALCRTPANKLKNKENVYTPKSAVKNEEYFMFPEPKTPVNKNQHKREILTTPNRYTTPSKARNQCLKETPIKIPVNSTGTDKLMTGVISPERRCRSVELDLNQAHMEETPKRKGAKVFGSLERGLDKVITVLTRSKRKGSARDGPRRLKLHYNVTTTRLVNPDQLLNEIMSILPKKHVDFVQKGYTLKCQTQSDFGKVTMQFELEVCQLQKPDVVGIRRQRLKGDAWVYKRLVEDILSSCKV
Chain of kinases (Homo sapiens, UniProt Q9H1R3) (Q9H1R3 whole entry): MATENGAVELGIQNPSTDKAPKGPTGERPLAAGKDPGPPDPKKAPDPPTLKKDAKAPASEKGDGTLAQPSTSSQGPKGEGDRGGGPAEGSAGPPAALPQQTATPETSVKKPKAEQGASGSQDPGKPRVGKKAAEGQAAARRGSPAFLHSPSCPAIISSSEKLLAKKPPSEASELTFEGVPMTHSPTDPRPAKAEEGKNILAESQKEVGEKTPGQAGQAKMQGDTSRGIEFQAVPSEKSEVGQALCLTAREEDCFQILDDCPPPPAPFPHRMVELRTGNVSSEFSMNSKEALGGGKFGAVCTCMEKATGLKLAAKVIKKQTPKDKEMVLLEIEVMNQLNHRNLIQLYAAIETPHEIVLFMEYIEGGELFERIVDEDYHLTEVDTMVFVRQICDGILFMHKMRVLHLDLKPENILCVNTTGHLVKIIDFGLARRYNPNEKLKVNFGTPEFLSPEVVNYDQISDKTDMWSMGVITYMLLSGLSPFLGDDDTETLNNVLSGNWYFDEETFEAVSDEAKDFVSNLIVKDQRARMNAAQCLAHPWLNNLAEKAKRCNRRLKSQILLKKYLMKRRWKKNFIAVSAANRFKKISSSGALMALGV
Chain of kinases (Homo sapiens, UniProt Q9BXA7) (Q9BXA7 whole entry): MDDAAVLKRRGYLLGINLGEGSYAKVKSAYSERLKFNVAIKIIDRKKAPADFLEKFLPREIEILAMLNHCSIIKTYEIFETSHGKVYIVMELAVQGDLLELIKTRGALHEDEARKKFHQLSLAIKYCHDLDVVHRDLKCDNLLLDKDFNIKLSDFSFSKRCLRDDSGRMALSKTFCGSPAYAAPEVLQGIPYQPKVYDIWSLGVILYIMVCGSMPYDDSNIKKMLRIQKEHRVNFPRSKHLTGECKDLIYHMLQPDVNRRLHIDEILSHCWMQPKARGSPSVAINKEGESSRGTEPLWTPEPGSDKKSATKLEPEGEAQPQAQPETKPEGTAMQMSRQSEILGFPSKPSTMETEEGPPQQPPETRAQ
Chain of kinases (Homo sapiens, UniProt Q9UBE8) (Q9UBE8 whole entry): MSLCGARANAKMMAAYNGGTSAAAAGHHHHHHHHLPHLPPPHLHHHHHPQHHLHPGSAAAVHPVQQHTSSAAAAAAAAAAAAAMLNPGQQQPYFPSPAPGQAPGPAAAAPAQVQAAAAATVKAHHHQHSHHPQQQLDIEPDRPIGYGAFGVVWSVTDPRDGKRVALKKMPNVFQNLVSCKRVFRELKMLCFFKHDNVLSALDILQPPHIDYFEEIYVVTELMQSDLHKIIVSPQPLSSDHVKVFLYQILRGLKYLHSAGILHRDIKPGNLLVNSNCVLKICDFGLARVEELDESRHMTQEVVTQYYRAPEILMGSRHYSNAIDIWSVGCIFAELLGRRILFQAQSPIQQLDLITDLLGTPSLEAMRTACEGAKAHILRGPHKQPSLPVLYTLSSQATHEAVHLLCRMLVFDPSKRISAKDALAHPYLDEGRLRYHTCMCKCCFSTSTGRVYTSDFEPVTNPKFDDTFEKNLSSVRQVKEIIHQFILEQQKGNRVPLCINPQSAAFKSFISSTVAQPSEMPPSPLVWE
Chain of kinases (Homo sapiens, UniProt P48736) (P48736 whole entry): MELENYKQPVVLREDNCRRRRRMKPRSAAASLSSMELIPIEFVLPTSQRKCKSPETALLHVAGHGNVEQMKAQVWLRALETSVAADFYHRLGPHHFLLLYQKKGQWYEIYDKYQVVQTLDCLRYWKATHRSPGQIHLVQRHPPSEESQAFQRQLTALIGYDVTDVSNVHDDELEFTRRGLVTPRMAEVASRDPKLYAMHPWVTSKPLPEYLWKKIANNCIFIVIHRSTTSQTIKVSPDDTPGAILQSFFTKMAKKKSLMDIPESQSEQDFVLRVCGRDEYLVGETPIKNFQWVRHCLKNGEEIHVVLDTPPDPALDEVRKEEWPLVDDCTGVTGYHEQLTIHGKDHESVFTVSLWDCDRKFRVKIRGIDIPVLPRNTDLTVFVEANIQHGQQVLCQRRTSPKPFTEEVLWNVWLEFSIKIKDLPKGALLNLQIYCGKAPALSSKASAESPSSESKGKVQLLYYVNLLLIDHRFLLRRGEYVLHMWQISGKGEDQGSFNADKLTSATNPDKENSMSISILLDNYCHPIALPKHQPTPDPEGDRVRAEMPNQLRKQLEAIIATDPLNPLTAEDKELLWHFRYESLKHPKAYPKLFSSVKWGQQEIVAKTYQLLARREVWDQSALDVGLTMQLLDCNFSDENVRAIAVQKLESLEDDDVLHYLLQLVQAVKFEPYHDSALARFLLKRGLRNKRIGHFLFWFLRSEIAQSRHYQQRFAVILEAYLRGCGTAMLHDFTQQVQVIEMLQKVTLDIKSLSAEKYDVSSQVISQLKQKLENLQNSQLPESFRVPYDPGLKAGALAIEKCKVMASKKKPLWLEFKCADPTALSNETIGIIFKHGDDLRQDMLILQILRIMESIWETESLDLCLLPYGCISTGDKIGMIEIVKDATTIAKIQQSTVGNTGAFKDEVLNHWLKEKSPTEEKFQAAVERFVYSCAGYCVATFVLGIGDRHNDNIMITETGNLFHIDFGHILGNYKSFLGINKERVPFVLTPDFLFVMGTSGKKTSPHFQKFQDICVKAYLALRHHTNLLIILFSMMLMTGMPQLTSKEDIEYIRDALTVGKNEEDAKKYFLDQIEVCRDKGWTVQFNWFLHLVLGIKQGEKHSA
Chain of kinases (Homo sapiens, UniProt Q13882) (Q13882 whole entry): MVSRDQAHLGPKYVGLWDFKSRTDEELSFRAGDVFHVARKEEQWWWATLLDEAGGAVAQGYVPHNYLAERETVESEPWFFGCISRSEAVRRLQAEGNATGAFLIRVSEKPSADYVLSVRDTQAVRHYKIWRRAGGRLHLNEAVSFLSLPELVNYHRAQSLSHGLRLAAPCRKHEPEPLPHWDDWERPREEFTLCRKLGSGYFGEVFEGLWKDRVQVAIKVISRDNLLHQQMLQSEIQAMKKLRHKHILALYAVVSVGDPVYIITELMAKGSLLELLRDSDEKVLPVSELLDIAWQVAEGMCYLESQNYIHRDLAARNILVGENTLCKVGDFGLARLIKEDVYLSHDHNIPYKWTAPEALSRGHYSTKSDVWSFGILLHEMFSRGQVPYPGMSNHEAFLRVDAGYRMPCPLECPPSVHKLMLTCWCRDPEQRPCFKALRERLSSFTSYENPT
Chain of kinases (Homo sapiens, UniProt P51817) (P51817 whole entry): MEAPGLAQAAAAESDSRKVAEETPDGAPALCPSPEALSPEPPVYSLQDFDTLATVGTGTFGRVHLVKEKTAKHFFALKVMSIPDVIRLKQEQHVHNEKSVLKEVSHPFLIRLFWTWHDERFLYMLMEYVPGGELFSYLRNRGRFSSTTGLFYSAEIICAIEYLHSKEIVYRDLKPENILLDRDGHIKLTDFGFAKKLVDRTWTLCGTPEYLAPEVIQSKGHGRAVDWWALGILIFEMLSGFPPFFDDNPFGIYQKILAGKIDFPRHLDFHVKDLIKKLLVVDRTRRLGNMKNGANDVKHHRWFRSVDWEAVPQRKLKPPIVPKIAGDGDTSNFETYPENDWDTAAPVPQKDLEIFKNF

Compound	contractile parameters / force of contraction (immature hCOs [1])	Mean Inhib (%) (kinases [2])	Mean Inhib (%) (kinases [3])	Mean Inhib (%) (kinases [4]; Test Conc(μM):ATP Conc(μM) 0.25)	Mean Inhib (%) (kinases [5])	Mean Inhib (%) (kinases [6])	Mean Inhib (%) (kinases [7])	Mean Inhib (%) (kinases [8])	Mean Inhib (%) (kinases [9])	Mean Inhib (%) (kinases [10])	Mean Inhib (%) (kinases [11])	Mean Inhib (%) (kinases [12])	hCO Screen 0.1 uM Prolif Activation Ki-67 (%) (immature hCOs [13])	hCO Screen 1 uM Prolif Activation Ki-67 (%) (immature hCOs [13])	hCO Screen 10 uM Prolif Activation Ki-67 (%) (immature hCOs [13])	proliferation in immature hCO (Ki-67 intensity) (immature hCOs [13])	hCO Screen Max Effect (%) (immature hCOs [13])	pharmacokinetic properties [14]	Mean Inhib (%) (kinases [4]; Test Conc(μM):ATP Conc(μM) 1:300)
Cc1cc(Oc2ccnc(Nc3ccc(S(N)(=O)=O)cc3)c2)c(-c2ccccn2)nc1C [compound 65]	without affecting contractile parameters	12.2%	−1.9%	−7.8%	9.1%	32.3%	6.0%	1.8%	88.8%	2.5%	0.4%	67.0%	−38%	96%	121%	induced proliferation	121%	poor	–
Cc1ccc(NC(=O)c2ccnc(N3CCOCC3)c2)cc1Nc1ccnc(N2CC(C)OC(C)C2)n1 (stereo not drawn) [compound 3]	without affecting contractile parameters	18.8%	6.2%	–	7.4%	3.5%	3.6%	−3.2%	−3.5%	−3.9%	−5.8%	−3.5%	299%	23%	111%	induced proliferation	299%	poor	7.4%
